Molecules are shown by their SMILES.

What all share (assay type): cell-based, human
One assay has as its system Caco-2. In words: Intracellular GSH level, monochlorobimane (MCB) probe. The conditions noted are these: compound at IC50, 24 h, vs control. On the procedure:
The spectrofluorimetric method with monochlorobimane (MCB; Sigma-Aldrich; St. Louis, MO, USA) was used to determine GSH. Monochlorobimane reacts with glutathione in a reaction catalyzed by cellular glutathione S-transferase. The reaction produces a fluorescent bimane-glutathione conjugate (GSH-MCB). A major advantage of MCB is its ability to penetrate the cell membrane, which is why it is used as a probe to determine the amount of GSH in living cells.
Cells were seeded in black 96-well fluorometric microplates at a density of 10 × 10^3 cells/mL. […] Following compound incubation, the medium was removed, and the cell monolayers were washed twice with HBSS (140 mM NaCl, 5 mM KCl, 0.8 mM MgCl2, 1.8 mM CaCl2, 1 mM Na2HPO4, 10 mM HEPES, and 1% glucose). A solution of MCB at a final concentration of 40 μM was added to each well and incubated in a CO2 cell culture incubator at 37 °C for 20 min. A 40 mM MCB stock solution was prepared by dissolving 9 mg of the reagent in 1 mL of absolute ethanol. Fluorescence was measured using a Perkin-Elmer LS-5B spectrofluorometer (Waltham, MA, USA) at the following excitation and fluorescence emission wavelengths: λex = 380 nm/λem = 470 nm. After incubation with MCB, the cells were lysed with 50 μL of lysis buffer (10 mM TRIS-HCl; pH 8 containing 0.1% Triton X-100). In order to normalize the number of cells in individual samples, the amount of DNA was determined by adding 50 μL of ethidium bromide (EB, final concentration 0.2 mM) to each well after measuring the MCB fluorescence and measuring the EB fluorescence at an excitation wavelength of λex = 530 nm and an emission wavelength of λem = 590 nm. The results obtained using the standard curve were converted to nM of GSH.

Assay [1] deals with HT-29. The assay is described as follows: Cell cycle analysis via flow cytometry (propidium iodide). The conditions noted are these: compound at IC50, 24 h, vs control. The protocol: The most commonly used fluorescent dyes for cell cycle analysis are fluorochromes that penetrate the cell membrane into the interior of permeabilized cells and bind stoichiometrically to DNA via intercalation, e.g., DAPI, propidium iodide (PI). The analysis is performed on cells fixed in ethanol. In this work, the cell cycle analysis was performed using the method described by Darzynkiewicz and Juan.
Cells (10 × 10^3) were seeded in 35 mm dishes and cultured in the medium for 24 h to attain the logarithmic growth phase. […] Subsequently, cells were trypsinized and centrifuged for 10 min at 400× g at 4 °C. The cell suspension in 100 μL of PBS was fixed in 1 mL of 70% ethanol (−20 °C) and stored at this temperature until analysis. Immediately before analysis, the ethanol-fixed cell suspension was centrifuged at 10,000 rpm for 10 min at 4 °C. The pellet was washed with cold (4 °C) PBS to remove residual ethanol, and the cell suspension was centrifuged again under the same conditions. A volume of 300 μL of PBS containing 4 mg/mL propidium iodide (final concentration 75 μM) and 1 mg/mL RNAse A (final concentration 20 μg/mL) was added to the cell pellet and incubated for at least 30 min at 37 °C in the dark. Stained cells were analyzed using a flow cytometer (Becton Dickinson, Franklin Lakes, NJ, USA), counting 10,000 cells in each sample. Data were analyzed using FlowJo 10.10 software (FlowJo, Williamson Way Ashland, OR, USA).

In assay [2] the test system is HT-29. In words: Autophagy induction, monodansylcadaverine (MDC) fluorescence. The conditions noted are these: compound at IC50, 24 h, vs control. The protocol: Autophagy induction in cells treated with the tested drugs was determined by measuring Monodansylcadaverine (MDC; Sigma-Aldrich; St. Louis, MO, USA) fluorescence according to a modified method described by Vázquez. […] In the cell, MDC accumulates in lipid-rich cell membranes. It has been shown that MDC can be used as a dye for detecting autophagy, as it accumulates in autophagolysosomes as a result of interaction with membrane lipids.
Cells were seeded in black 96-well fluorometric microplates at a density of 10 × 10^3 cells/mL. […] Following compound incubation, the medium was removed, and the cell monolayers were washed twice with HBSS (140 mM NaCl, 5 mM KCl, 0.8 mM MgCl2, 1.8 mM CaCl2, 1 mM Na2HPO4, 10 mM HEPES, and 1% glucose). A solution of MDC at a final concentration of 50 μM was added to each well and incubated in a CO2 cell culture incubator at 37 °C for 15 min. After incubation with MDC, the probe was removed, and the cells were lysed with 50 μL of lysis buffer (10 mM TRIS-HCl; pH 8 containing 0.1% Triton X-100). After lysis, fluorescence was measured at an excitation wavelength of λex = 390 nm and an emission wavelength of λem = 460 nm using a Perkin-Elmer LS-5B spectrofluorometer (Waltham, MA, USA). In order to normalize the number of cells in individual samples, the amount of DNA was determined by adding 50 μL of EB (final concentration 0.2 mM) to each well after measuring the MCB fluorescence and measuring the EB fluorescence at an excitation wavelength of λex = 530 nm and an emission wavelength of λem = 590 nm. The results were calculated as the ratio of MDC fluorescence to EB fluorescence.

Another assay relates to SW620. The assay is described as follows: MTT test after pre-incubation with antioxidants NAC or Trolox. The conditions noted are these: vs cells without antioxidant pre-incubation. The protocol: Moreover, the elevation of ROS levels was accompanied by a decrease in intracellular GSH. To investigate the role of ROS in the cytotoxic activity of flavonoid derivatives against cancer cells, LoVo cancer cells were pre-treated with antioxidants, NAC or a water-soluble derivative of vitamin E (Trolox), for 1 h before exposure to the studied compounds. Subsequently, the MTT assay was performed.
To elucidate the involvement of ROS in the cytotoxic effects of the investigated compounds, cells were pre-treated with the vitamin E (Trolox, Sigma-Aldrich, St. Louis, MO, USA) or N-Acetylcysteine (NAC) antioxidants for 1 h. Cells were seeded into sterile, colorless 96-well microplates at a density of 6–8 × 10^3 cells/mL, contingent upon the cell line. Following a 24 h culture period, Trolox or NAC was added at a final concentration of 50 μM and 3 mM, respectively. After 1 h of incubation, the antioxidants were removed by washing, and test compounds were administered at appropriate concentrations (10–200 μM) in fresh cell culture medium, followed by a 24 h incubation. The MTT assay was then conducted under identical experimental conditions, as detailed in Section 2.2.

Consider `O=C1/C(=C/c2ccccc2)COc2ccccc21` [Compound 1], for which, in the assay on Caco-2, the “Decrease in GSH levels” value is 25–30%. Moreover, the “Increase in the G2/M phase cell percentage” value in the assay with HT-29 [1] turned out to be 25%. The “Increase in MDC fluorescence intensity (autophagy)” value in the assay on HT-29 [2] came to 25%.

In the case of `O=C1/C(=C/c2ccccc2)C(c2ccccc2)Oc2ccccc21` (stereo not drawn) [Compound 5], the “Change of the IC50 value after pre-incubation with Trolox” value in the assay on SW620 is recorded as “Statistically significant increases in the IC50 value”. Also, the “Increase in the G2/M phase cell percentage” value in the assay on HT-29 [1] is recorded as 25%. For the same compound, in the assay on HT-29 [2], the “Increase in MDC fluorescence intensity (autophagy)” value is given as 20%.
